Source: ChEMBL document CHEMBL1150018, “New reagents for controlled release of nitric oxide. Structure-stability relationships” (Bioorg Med Chem Lett, 1996)

Assays:
Assay type in all cases: ADME
[1] = Half life was determined; details: rat
[2] = Kinetic constant log k was determined
[3] = Rate of decomposition in aqueous solution (pH 8.0, 30 degree Celsius) at 107 min; details: buffer, pH 8, 107 min
[4] = Rate of decomposition in aqueous solution(pH 8.0, 30 degree Celsius)at 350 min; details: buffer, pH 8, 350 min
[5] = Rate of decomposition in aqueous solution (pH 8.0, 30 degree Celsius) at 150 min; details: buffer, pH 8, 2.5 h
[6] = Rate of decomposition in aqueous solution (pH 8.0, 30 degree Celsius) at 87 min; details: buffer, pH 8, 1.45 h
[7] = Rate of decomposition in aqueous solution (pH 8.0, 30 degree Celsius) at 84 min; details: buffer, pH 8, 1.4 h
[8] = Rate of decomposition in aqueous solution (pH 8.0, 30 degree Celsius) at 2.6 min; details: buffer, pH 8, 156 s
[9] = Rate of decomposition in aqueous solution (pH 8.0, 30 degree Centigrade) at 5.3 min; details: buffer, pH 8, 318 s
[10] = Rate of decomposition in aqueous solution (pH 8.0, 30 degree Celsius) at 46 min; details: buffer, pH 8, 46 min
[11] = Rate of decomposition in aqueous solution (pH 8.0, 30 degree Celsius) at 35 min; details: buffer, pH 8, 35 min
[12] = Rate of decomposition in aqueous solution (pH 8.0, 30 degree Celsius) at 1500 min; details: buffer, pH 8, 25 h
[13] = Rate of decomposition in aqueous solution (pH 8.0, 30 degree Celsius) at 690 min; details: buffer, pH 8, 11.5 h
[14] = Rate of decomposition in aqueous solution (pH 8.0, 30 degree Celsius) at 350 min; details: buffer, pH 8, 350 min
[15] = Rate of decomposition in aqueous solution (pH 8.0, 30 degree Celsius) at 190 min; details: buffer, pH 8, 190 min
[16] = Rate of decomposition in aqueous solution (pH 8.0, 30 degree Celsius) at 86 min; details: buffer, pH 8, 86 min
[17] = Rate of decomposition in aqueous solution (pH 8.0, 30 degree Celsius) at 580 min; details: buffer, pH 8, 580 min
[18] = Rate of decomposition in aqueous solution (pH 8.0, 30 degree Celsius) at 1800 min; details: buffer, pH 8, 30 h
[19] = Rate of decomposition in aqueous solution (pH 8.0, 30 degree Celsius) at 2900 min; details: buffer, pH 8, 2900 min
[20] = Rate of decomposition in aqueous solution (pH 8.0, 30 degree Celsius) at 270 min; details: buffer, pH 8, 4.5 h

SMILES | half-life [1] | Log k [2] | further results
CC/C(=C\C(CNC(=O)c1cccnc1)=N\O)C(C)[N+](=O)[O-] (stereo unspecified) | 1.78 h | -2.187 | k [3]: 0.0065 min⁻¹
CCC(/C(C)=C/C(CNC(=O)c1cccnc1)=N/O)[N+](=O)[O-] (stereo unspecified) | 5.83 h | -2.699 | k [4]: 0.002 min⁻¹
CC/C(=C\C(=N\O)C(N)=O)C(CC)[N+](=O)[O-] (stereo unspecified) | 2.5 h | -2.347 | k [5]: 0.0045 min⁻¹
CC(=O)NCC(/C=C1\CCCCC1[N+](=O)[O-])=N\O (stereo unspecified) | 1.45 h |  | k [6]: 0.008 min⁻¹
O=C(NCC(/C=C1\CCCCC1[N+](=O)[O-])=N\O)c1cccnc1 (stereo unspecified) | 1.4 h |  | k [7]: 0.0083 min⁻¹
COCC(/C(C)=C/C(=N/O)C(N)=O)[N+](=O)[O-] (stereo unspecified) | 0.0433 h | 0.569 | k [8]: 0.27 min⁻¹
COCC(/C(C)=C/C(CNC(=O)c1cccnc1)=N/O)[N+](=O)[O-] (stereo unspecified) | 0.0883 h | -0.886 | k [9]: 0.13 min⁻¹
CC/C(=C\C(=N\O)C(N)=O)C(C)[N+](=O)[O-] (stereo unspecified) | 0.767 h | -1.824 | k [10]: 0.00025 s⁻¹
NC(=O)C(/C=C1\CCCCC1[N+](=O)[O-])=N\O (stereo unspecified) | 0.583 h |  | k [11]: 0.02 min⁻¹
CC/C(=C\C(CNC(C)=O)=N\O)C(C(C)C)[N+](=O)[O-] (stereo unspecified) | 25 h | -3.337 | k [12]: 0.00046 min⁻¹
CC/C(=C\C(=N\O)C(N)=O)C(C(C)C)[N+](=O)[O-] (stereo unspecified) | 11.5 h | -3 | k [13]: 0.001 min⁻¹
CC/C(=C\C(CNC(=O)c1cccnc1)=N\O)C(CC)[N+](=O)[O-] (stereo unspecified) | 5.83 h | -2.699 | k [14]: 0.002 min⁻¹
CC(C)/C(=C\C(=N\O)C(N)=O)C(C)[N+](=O)[O-] (stereo unspecified) | 3.17 h | -2.432 | k [15]: 0.0037 min⁻¹
CC/C(=C\C(CNC(C)=O)=N\O)C(C)[N+](=O)[O-] (stereo unspecified) | 1.43 h | -2.092 | k [16]: 0.0081 min⁻¹
CC(C)/C(=C\C(CNC(=O)c1cccnc1)=N\O)C(C)[N+](=O)[O-] (stereo unspecified) | 9.67 h | -2.921 | k [17]: 0.0012 min⁻¹
CC/C(=C\C(CNC(=O)c1cccnc1)=N\O)C(C(C)C)[N+](=O)[O-] (stereo unspecified) | 30 h | -3.42 | k [18]: 0.00038 min⁻¹
CC/C(=C\C(=N\O)C(N)=O)C([N+](=O)[O-])C(C)(C)C (stereo unspecified) | 48.3 h | -3.62 | k [19]: 0.00024 min⁻¹
CC/C(=C\C(CNC(C)=O)=N\O)C(CC)[N+](=O)[O-] (stereo unspecified) | 4.5 h | -2.585 | k [20]: 0.0026 min⁻¹
